Source: patent US20230157292A1, “SEED COATING FORMULA FOR CONTROLLING SOYBEAN SOUTHERN BLIGHT AND SOYBEAN SHEATH BLIGHT” (Institute of Plant Protection and Agro-products Safety, …, priority 2022, published 2023)

Key:
Sclerotium rolfsii = assay: Hypha growth inhibition, toxicity determination for Sclerotium rolfsii; type: cell-based; settings: PDA medium, 25° C.
Experimental: (§1) Fungicidal properties of Thifluzamide and Ipconazole were analyzed in detail.
(§2) Test targets were Rhizoctonia solani and Sclerotium rolfsii, but not limited herein. […] Hypha blocks having a diameter of 5 mm were made on the edges of pre-culture colonies by a sterilized puncher and respectively transferred onto different medium plates for culturing at 25° C. A hypha growth measurement method was adopted in the test to prepare drug-containing media according to different treatments; the hypha blocks having the diameter of 5 mm were made on the edges of pre-culture colonies by the sterilized puncher and respectively transferred onto medium plates having different drug contents; a colony diameter was measured by a crossing method; the colony diameter (mm) was measured; and a growth inhibition ratio was calculated by the following formulas: […]
(§3) The hypha growth inhibition ratio was converted into an inhibition probability value (y); the agent concentration was converted into a concentration logarithm (x); a toxic regression line was drawn by taking the concentration logarithm as a horizontal coordinate and taking the probability value as a vertical coordinate; a toxic regression equation of the single agents such as the Thfiluzamide and Ipconazole and a mixture thereof for pathogenic bacteria was solved; and the EC50 value and a related ratio r were calculated. […]

Rhizoctonia solani = assay: Hypha growth inhibition, toxicity determination for Rhizoctonia solani; type: cell-based; settings: PDA medium, 25° C.
Experimental: as §1, §2, §3

[1] = pH value of 5-9; cited from earlier work
rabbit = settings: cited from earlier work

## CC(C)C1CCC(Cc2ccc(Cl)cc2)C1(O)Cn1cncn1 (stereo not drawn) [Ipconazole, (1RS, 2SR, 5RS; 1RS, 2SR, 5 SR)-2-(4-chlorobenzyl)-5-isopropyl-1-(1H-1,2,4-triazole-1-ylmethyl) cyclopentanol]
Sclerotium rolfsii
  EC50 ppm: 0.0327 ppm
Rhizoctonia solani
  EC50 ppm: 0.0217 ppm

## Cc1nc(C(F)(F)F)c(C(=O)Nc2c(Br)cc(OC(F)(F)F)cc2Br)s1 [Thifluzamide, 2′,6′-dibromo-2-methyl-4′-trifluoromethoxy-4-trifluoromethyl-1,3-thiadiazole-5-hydroxyanilide]
Sclerotium rolfsii
  EC50 ppm: 0.1258 ppm
Rhizoctonia solani
  EC50 ppm: 0.154 ppm
[1]
  stability: stable
rabbit
  acute dermal LD50: > 2000 mg/kg
